Data: patent US11865126B2, “Method for treating anxiety disorders, headache disorders, and eating disorders with psilocybin” (priority 2019, dated 2024)

Tested on: healthy subjects
Experiment: Life Changes Inventory (LCI)
Format: in vivo, human
Source text: In some embodiments, the Life Changes Inventory (LCI) questionnaire is utilized to evaluate the safety and/or efficacy of psilocybin. The LCI is designed as a questionnaire to investigate those variables present in the day-to-day experience of adults that might relate either to stability or decline of intellectual ability.
The following list of outcome measures are non-exhaustive. • a. The short-term change from Baseline (Day −1 [Visit 2]) to Day 7 (Visit 5) in cognitive measures of attention, spatial and working memory and executive function was measured by a composite score of the CANTAB Panel (Spatial Working Memory [SWM], Rapid Visual Information Processing [RVP], Paired Associates Learning [PAL]). • b. The short-term change from Baseline (Day −1 [Visit 2]) to Day 7 (Visit 5) in Social Cognition Panel scales (Pictorial Empathy Test [PET], Reading the Mind in the Eyes Test [RMET], Toronto Empathy Questionnaire [TEQ], Social Value Orientation [SVO], Scale of Social Responsibility [SSR]). • c. The change from Baseline (Day −1 [Visit 2]) to Day 28 (Visit 6) in cognitive measures of attention, spatial and working memory and executive function as measured by a composite score of the CANTAB Panel (SWM, RVP, PAL). • d. The long-term change from Baseline (Day −1 [Visit 2]) to Day 84 (Visit 7) in Social Cognition Panel scales (PET, RMET, TEQ, SVO, SSR). • e. Dose-related differences between cognitive effects of psilocybin at Baseline (Day −1 [Visit 2]), Day 7 (Visit 5) and Day 28 (Visit 6), as measured by a composite score of the CANTAB Panel (SWM, RVP, PAL). • f. Dose-related differences between psychological effects of psilocybin at Baseline (Day −1 [Visit 2]), Day 7 (Visit 5) and Day 84 (Visit 7), as measured by Social Cognition Panel scales (PET, RMET, TEQ, SVO, SSR). • g. Differences in cognitive effects of psilocybin between psilocybin-naïve and experienced subjects at Baseline (Day −1 [Visit 2]), Day 7 (Visit 5) and Day 28 (Visit 6), as measured by a composite score of the CANTAB Panel (SWM, RVP, PAL). • h. Differences in Positive and Negative Affect Schedule (PANAS) after study drug administration on Day 0 (Visit 3). • i. Differences between psilocybin and placebo in the Emotion Recognition Test (ERT), Intra-Extra Dimensional Set Shift (IED), One Touch Stockings (OTS), Verbal Fluency and Digit Span Forward at Day 7 (Visit 5). • j. A composite score of the CANTAB Panel, including the following tests: • i. Spatial Working Memory (SWM) (performed at Visit 2, Visit 5, and Visit 6). • ii. Rapid Visual Information Processing (RVP) (performed at Visit 2, Visit 5, and Visit 6). • iii. Paired Associates Learning (PAL) (performed at Visit 2, Visit 5, and Visit 6). • k. Cognitive Flexibility Panel • i. Emotion Recognition Task (ERT) (performed at Visit 5). • ii. Intra-Extra Dimensional Set Shift (IED) (performed at Visit 5). • iii. One Touch Stockings (OTS) (performed at Visit 5). • iv. Verbal Fluency (performed at Visit 5). • v. Digit Span Forward (performed at Visit 5). • l. Five Dimension Altered States of Consciousness questionnaire (5D-ASC) (performed at Visit 3). • m. PANAS (performed at Visit 2 and Visit 3). • n. NEO-Five Factor Inventory (NEO-FFI) (performed at Visit 2, Visit 5, and Visit 7). • o. Symptom Checklist-90 item (SCL-90) (performed at Visit 2, Visit 5, and Visit 7). • p. Life Changes Inventory (LCI): The LCI measures changes in attitudes and values after near-death experiences often used to evaluate personal transformation following spiritually oriented experiences and practices. (performed at Visit 5 and Visit 7). • q. Social Cognition Panel scales • i. Pictorial Empathy Test (PET) (performed at Visit 2, Visit 5, and Visit 7). • ii. Reading the Mind in the Eyes Test (RMET) (performed at Visit 2, Visit 5, and Visit 7). • iii. Social Value Orientation (SVO) (performed at Visit 2, Visit 5, and Visit 7). • iv. Toronto Empathy Questionnaire (TEQ) (performed at Visit 2, Visit 5, and Visit 7). • v. […]

CN(C)CCc1c[nH]c2cccc(OP(=O)(O)O)c12 [psilocybin]
LCI Self-Acceptance Scores (LS mean) (10 mg psilocybin, Day 7 (Example 19)): 0.8
LCI Self-Acceptance Scores (LS mean) (10 mg psilocybin, Day 84 (Example 19)): 0.6
LCI Self-Acceptance Scores (LS mean) (25 mg psilocybin, Day 7 (Example 19)): 0.6
LCI Self-Acceptance Scores (LS mean) (25 mg psilocybin, Day 84 (Example 19)): 0.6
LCI - absolute change, difference Psilocybin 10 mg - Placebo (Day 7): 0.4
LCI - absolute change, difference Psilocybin 25 mg - Placebo (Day 7): 0.3
LCI - absolute change, difference Psilocybin (25 mg-10 mg) (Day 7): −0.1
LCI appreciation for life, difference Psilocybin 10 mg - Placebo (Day 7): 0.6
LCI appreciation for life, difference Psilocybin 25 mg - Placebo (Day 7): 0.5
LCI appreciation for life, difference Psilocybin (25 mg-10 mg) (Day 7): −0.2
LCI appreciation of death, difference Psilocybin 10 mg - Placebo (Day 7): 0.1
LCI appreciation of death, difference Psilocybin 25 mg - Placebo (Day 7): 0.1
LCI appreciation of death, difference Psilocybin (25 mg-10 mg) (Day 7): −0.0
LCI concern for others, difference Psilocybin 10 mg - Placebo (Day 7): 0.4
LCI concern for others, difference Psilocybin 25 mg - Placebo (Day 7): 0.4
LCI concern for others, difference Psilocybin (25 mg-10 mg) (Day 7): 0.0
LCI concern for worldly achievement, difference Psilocybin 10 mg - Placebo (Day 7): −0.2
LCI concern for worldly achievement, difference Psilocybin 25 mg - Placebo (Day 7): −0.1
LCI concern for worldly achievement, difference Psilocybin (25 mg-10 mg) (Day 7): 0.1
LCI concern social, difference Psilocybin 10 mg - Placebo (Day 7): 0.1
LCI concern social, difference Psilocybin 25 mg - Placebo (Day 7): 0.2
LCI concern social, difference Psilocybin (25 mg-10 mg) (Day 7): 0.1
LCI quest for meaning, difference Psilocybin 10 mg - Placebo (Day 7): 0.4
LCI quest for meaning, difference Psilocybin 25 mg - Placebo (Day 7): 0.4
LCI quest for meaning, difference Psilocybin (25 mg-10 mg) (Day 7): 0.0
LCI religiousness, difference Psilocybin 10 mg - Placebo (Day 7): −0.1
LCI religiousness, difference Psilocybin 25 mg - Placebo (Day 7): 0.0
LCI religiousness, difference Psilocybin (25 mg-10 mg) (Day 7): 0.1
LCI self-acceptance, difference Psilocybin 10 mg - Placebo (Day 7): 0.7
LCI self-acceptance, difference Psilocybin 25 mg - Placebo (Day 7): 0.5
LCI self-acceptance, difference Psilocybin (25 mg-10 mg) (Day 7): −0.1
LCI spirituality, difference Psilocybin 10 mg - Placebo (Day 7): 0.3
LCI spirituality, difference Psilocybin 25 mg - Placebo (Day 7): 0.2
LCI spirituality, difference Psilocybin (25 mg-10 mg) (Day 7): −0.1
LCI - absolute change, difference Psilocybin 10 mg - Placebo (Day 84): 0.4
LCI - absolute change, difference Psilocybin 25 mg - Placebo (Day 84): 0.4
LCI - absolute change, difference Psilocybin (25 mg-10 mg) (Day 84): −0.0
LCI appreciation for life, difference Psilocybin 10 mg - Placebo (Day 84): 0.6
LCI appreciation for life, difference Psilocybin 25 mg - Placebo (Day 84): 0.5
LCI appreciation for life, difference Psilocybin (25 mg-10 mg) (Day 84): −0.1
LCI appreciation of death, difference Psilocybin 10 mg - Placebo (Day 84): 0.2
LCI appreciation of death, difference Psilocybin 25 mg - Placebo (Day 84): 0.2
LCI appreciation of death, difference Psilocybin (25 mg-10 mg) (Day 84): 0.0
LCI concern for others, difference Psilocybin 10 mg - Placebo (Day 84): 0.4
LCI concern for others, difference Psilocybin 25 mg - Placebo (Day 84): 0.5
LCI concern for others, difference Psilocybin (25 mg-10 mg) (Day 84): 0.1
LCI concern for worldly achievement, difference Psilocybin 10 mg - Placebo (Day 84): −0.2
LCI concern for worldly achievement, difference Psilocybin 25 mg - Placebo (Day 84): −0.1
LCI concern for worldly achievement, difference Psilocybin (25 mg-10 mg) (Day 84): 0.1
LCI concern social, difference Psilocybin 10 mg - Placebo (Day 84): 0.1
LCI concern social, difference Psilocybin 25 mg - Placebo (Day 84): 0.1
LCI concern social, difference Psilocybin (25 mg-10 mg) (Day 84): 0.0
LCI quest for meaning, difference Psilocybin 10 mg - Placebo (Day 84): 0.4
LCI quest for meaning, difference Psilocybin 25 mg - Placebo (Day 84): 0.4
LCI quest for meaning, difference Psilocybin (25 mg-10 mg) (Day 84): −0.0
LCI religiousness, difference Psilocybin 10 mg - Placebo (Day 84): −0.0
LCI religiousness, difference Psilocybin 25 mg - Placebo (Day 84): 0.0
LCI religiousness, difference Psilocybin (25 mg-10 mg) (Day 84): 0.1
LCI self-acceptance, difference Psilocybin 10 mg - Placebo (Day 84): 0.5
LCI self-acceptance, difference Psilocybin 25 mg - Placebo (Day 84): 0.5
LCI self-acceptance, difference Psilocybin (25 mg-10 mg) (Day 84): 0.0
LCI spirituality, difference Psilocybin 10 mg - Placebo (Day 84): 0.4
LCI spirituality, difference Psilocybin 25 mg - Placebo (Day 84): 0.4
LCI spirituality, difference Psilocybin (25 mg-10 mg) (Day 84): −0.0
